Values quoted from earlier work as cited in patent US20050137163A1, “Modified hyaluronic acid for use in musculoskeletal tissue repair” (priority 2003, published 2005).

Conditions: investigated previously as an antimicrobial agent

benzalconium chloride [BzCl]
concentration shown to be safe: up to 0.1 % weight
